{"source": "patent US20240173363A1", "about": "“MICROBIOME COMPOSITION OF HALOPHILIC BACILLUS VELEZENSIS KMU01 STRAIN FERMENTED CULTURE SUPERNATANT WITH ANTI-OBESITY EFFECT” (KOOKMINBIO, CORP., priority 2022, published 2024)", "tested_on": "C57BL/6J mice", "assay": "Biochemical analysis of blood (plasma)", "format": "in vivo", "settings": "HFD mice", "protocol": "When brought in, the animal was inspected and weighed. […] Xenical was used as a positive control. […] Blood glucose, AST, ALT, and BUN were measured using a chemical analyzer (Fuji DRI-CHEM 3500i, Fuji Photo Film, Ltd., Tokyo, Japan), total cholesterol and high density lipoprotein (HDL)-cholesterol (hereinafter referred to as HDL-C) were measured using a LabAssay™ Cholesterol kit (Wako, Osaka, Japan), and a low-density lipoprotein (LDL)-cholesterol (hereinafter referred to as LDL-C) was calculated using the following Equation 2. In addition, TG was analyzed using TG assay kits (Abcam, Cambridge, MA), respectively. LDL-C=Total cholesterol−{(HDL-C)+(TG/5)} [EQUATION 2]", "data": [{"smiles": "CCCCCCCCCCC[C@@H](C[C@@H]1OC(=O)[C@H]1CCCCCC)OC(=O)[C@H](CC(C)C)NC=O", "note": "[Xen]", "values": [{"measurement": "blood TG compared to the high-fat diet group", "setting": "Xenical 50 mg/kg/day, 13 weeks, p<0.05", "result": "significantly reduced"}, {"measurement": "LDL-C", "setting": "plasma, 13 weeks oral, calculated by Equation 2, mean ± SD", "result": "31.55 ± 17.44", "unit": "mg/dL"}]}]}
